Measured values taken from article PMC10732257 (Oncotarget, 2023).
pIC50: −log10 of the molar value.

Columns and labels:
[1] = target: T1, CDK4/cyclin D3 (Homo sapiens, UniProt P11802); test: CDK family off-target kinase activity (Eurofins); assay type: biochemical
T1 construct: purchased Eurofins Pharma Discovery Services UK Ltd
Description: (§1) GFH009 inhibition activity against the CDK9/cyclin T1 complex as well as off-target CDK family reactivity were assayed by Eurofins Pharma Discovery Services UK Ltd., (Dundee, UK). Determination of off-target inhibition of other kinases was conducted by DiscoverX LeadHunter Discovery Services (Freemont, CA, USA.) GFH009 reactivity to GPCR family members was assayed by Wuxi AppTech (Shanghai, China).
(§2) The pharmacodynamic and mechanistic foundation for the
(§3) CDK9 inhibitor for the treatment of hematologic malignancies
(§4) Supplementary Table 1: Inhibitory action of GFH009 on other CDK family members
(§5) Various CDK/ Remaining enzymatic activity (%) after
(§6) cognate cyclin pairs tested exposure to GFH009 at a concentration of Selectivity vs. CDK9
(§7) (also on this page, place not known: www.oncotarget.com Oncotarget, Materials Supplementary)
(§8) (1 picture or pasted object on this page, not shown here)

[2] = target: T2, CDK1/cyclin B (Homo sapiens, UniProt P06493); test: CDK family off-target kinase activity (Eurofins); assay type: biochemical
T2 construct: purchased Eurofins Pharma Discovery Services UK Ltd
T2 sequence (P06493 whole entry): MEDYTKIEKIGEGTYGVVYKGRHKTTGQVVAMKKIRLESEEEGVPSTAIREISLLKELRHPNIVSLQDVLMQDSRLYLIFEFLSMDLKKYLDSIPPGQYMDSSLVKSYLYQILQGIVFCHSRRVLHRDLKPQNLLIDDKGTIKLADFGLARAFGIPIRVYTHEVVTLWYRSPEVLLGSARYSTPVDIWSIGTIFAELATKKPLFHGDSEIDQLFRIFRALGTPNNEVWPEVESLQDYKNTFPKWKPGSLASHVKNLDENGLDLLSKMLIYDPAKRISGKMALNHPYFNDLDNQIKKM
T2 sequence (P14635 whole entry partner): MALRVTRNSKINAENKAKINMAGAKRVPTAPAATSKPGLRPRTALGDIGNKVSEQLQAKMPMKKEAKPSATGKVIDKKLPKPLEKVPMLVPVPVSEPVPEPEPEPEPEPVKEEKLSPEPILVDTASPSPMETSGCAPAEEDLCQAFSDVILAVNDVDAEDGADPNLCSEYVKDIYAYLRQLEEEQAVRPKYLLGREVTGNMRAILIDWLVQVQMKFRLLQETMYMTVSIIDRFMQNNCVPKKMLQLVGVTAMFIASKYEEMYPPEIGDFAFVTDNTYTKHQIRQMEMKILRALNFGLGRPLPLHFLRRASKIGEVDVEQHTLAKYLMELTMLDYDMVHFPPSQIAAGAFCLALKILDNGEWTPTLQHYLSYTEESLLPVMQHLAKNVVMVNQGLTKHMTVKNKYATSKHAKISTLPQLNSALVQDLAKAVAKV
Description: as §1, §2, §3, §4, §5, §6, §7, §8

[3] = target: T3, CDK12/cyclin K (Homo sapiens, UniProt Q9NYV4); test: CDK family off-target kinase activity (Eurofins); assay type: biochemical
T3 construct: purchased Eurofins Pharma Discovery Services UK Ltd
T3 sequence (Q9NYV4 whole entry): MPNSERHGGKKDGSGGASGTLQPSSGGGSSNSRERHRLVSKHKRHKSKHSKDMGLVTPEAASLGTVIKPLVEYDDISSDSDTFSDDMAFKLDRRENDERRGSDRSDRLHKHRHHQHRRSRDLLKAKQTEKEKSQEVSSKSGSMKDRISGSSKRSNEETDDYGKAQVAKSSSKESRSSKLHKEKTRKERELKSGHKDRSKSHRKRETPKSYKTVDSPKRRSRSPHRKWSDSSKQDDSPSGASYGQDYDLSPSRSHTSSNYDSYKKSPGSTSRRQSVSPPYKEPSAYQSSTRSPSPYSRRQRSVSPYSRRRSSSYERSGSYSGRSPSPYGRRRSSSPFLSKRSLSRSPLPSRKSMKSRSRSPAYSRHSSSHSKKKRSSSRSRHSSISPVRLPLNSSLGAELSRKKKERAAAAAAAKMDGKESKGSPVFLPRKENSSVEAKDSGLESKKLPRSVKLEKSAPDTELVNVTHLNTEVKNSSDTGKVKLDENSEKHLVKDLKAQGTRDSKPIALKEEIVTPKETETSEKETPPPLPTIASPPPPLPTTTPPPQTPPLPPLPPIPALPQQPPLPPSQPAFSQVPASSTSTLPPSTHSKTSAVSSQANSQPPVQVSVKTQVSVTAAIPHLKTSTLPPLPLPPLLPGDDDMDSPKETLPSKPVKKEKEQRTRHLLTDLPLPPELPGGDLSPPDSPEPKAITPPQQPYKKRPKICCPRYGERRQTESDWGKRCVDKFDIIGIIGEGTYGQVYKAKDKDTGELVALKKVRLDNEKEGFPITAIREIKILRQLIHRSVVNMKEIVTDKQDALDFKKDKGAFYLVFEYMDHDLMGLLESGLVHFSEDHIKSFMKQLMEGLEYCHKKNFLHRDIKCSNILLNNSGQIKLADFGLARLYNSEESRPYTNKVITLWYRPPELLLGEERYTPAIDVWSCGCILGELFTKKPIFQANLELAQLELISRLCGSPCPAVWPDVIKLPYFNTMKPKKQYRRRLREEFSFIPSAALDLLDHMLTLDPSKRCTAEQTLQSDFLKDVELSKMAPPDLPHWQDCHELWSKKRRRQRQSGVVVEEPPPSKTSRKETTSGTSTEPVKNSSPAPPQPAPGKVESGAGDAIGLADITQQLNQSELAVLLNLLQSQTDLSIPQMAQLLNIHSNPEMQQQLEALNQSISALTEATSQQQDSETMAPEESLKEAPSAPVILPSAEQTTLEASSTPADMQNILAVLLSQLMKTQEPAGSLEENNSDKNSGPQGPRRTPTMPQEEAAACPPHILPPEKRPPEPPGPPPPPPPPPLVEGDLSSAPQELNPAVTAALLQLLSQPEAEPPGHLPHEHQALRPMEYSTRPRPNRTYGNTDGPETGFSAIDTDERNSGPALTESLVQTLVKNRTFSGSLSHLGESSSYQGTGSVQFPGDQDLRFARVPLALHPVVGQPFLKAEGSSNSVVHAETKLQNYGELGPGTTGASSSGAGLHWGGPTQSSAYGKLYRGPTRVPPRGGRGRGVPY
T3 sequence (O75909 whole entry partner): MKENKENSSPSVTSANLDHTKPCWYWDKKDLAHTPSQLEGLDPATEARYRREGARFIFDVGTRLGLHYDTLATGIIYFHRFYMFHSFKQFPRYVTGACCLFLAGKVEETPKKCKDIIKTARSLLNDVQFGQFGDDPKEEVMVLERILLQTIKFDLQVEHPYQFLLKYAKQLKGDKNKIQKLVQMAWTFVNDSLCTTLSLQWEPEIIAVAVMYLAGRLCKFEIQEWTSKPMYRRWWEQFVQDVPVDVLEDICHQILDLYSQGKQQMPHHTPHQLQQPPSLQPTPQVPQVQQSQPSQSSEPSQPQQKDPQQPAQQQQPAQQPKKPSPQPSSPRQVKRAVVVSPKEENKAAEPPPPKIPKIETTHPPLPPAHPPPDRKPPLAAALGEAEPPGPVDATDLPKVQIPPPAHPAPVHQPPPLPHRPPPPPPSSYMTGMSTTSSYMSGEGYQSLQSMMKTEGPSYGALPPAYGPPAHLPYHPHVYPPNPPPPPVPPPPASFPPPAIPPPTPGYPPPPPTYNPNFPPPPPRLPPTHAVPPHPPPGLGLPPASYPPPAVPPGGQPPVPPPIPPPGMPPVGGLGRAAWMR
Description: as §1, §2, §3, §4, §5, §6, §7, §8

[4] = target: T4, CDK3/cyclin E (Homo sapiens, UniProt Q00526); test: CDK family off-target kinase activity (Eurofins); assay type: biochemical
T4 construct: purchased Eurofins Pharma Discovery Services UK Ltd
T4 sequence (Q00526 whole entry): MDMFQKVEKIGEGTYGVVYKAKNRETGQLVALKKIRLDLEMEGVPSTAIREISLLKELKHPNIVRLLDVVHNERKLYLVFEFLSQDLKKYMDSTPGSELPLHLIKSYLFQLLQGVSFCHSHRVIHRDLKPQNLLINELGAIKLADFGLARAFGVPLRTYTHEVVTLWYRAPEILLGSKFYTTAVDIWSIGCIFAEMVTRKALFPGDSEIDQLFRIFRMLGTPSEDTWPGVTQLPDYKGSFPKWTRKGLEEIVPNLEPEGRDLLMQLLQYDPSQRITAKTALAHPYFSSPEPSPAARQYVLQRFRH
T4 sequence (P24864 whole entry partner): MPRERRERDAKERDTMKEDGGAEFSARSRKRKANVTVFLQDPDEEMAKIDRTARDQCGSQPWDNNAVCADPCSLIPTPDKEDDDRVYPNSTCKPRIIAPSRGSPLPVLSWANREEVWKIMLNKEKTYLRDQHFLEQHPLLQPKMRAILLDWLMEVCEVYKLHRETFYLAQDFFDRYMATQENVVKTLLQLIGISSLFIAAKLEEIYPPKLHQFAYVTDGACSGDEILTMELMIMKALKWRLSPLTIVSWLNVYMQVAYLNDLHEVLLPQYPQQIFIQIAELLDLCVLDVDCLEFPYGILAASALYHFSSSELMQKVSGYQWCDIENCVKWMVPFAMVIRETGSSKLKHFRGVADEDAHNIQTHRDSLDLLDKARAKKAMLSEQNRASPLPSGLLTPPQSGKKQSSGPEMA
Description: as §1, §2, §3, §4, §5, §6, §7, §8

[5] = tested on: human hematological malignancy-derived cell lines; test: Cell viability / antiproliferative activity by CellTiter Glo; assay type: cell-based; settings: in 7 of the 10 lines tested, 24 hours of exposure
Description: Figure 3 Effect of GFH009 on cell proliferation in assorted human hematologic malignancy cell lines. Cell viability IC50s for GFH009 on human hematological malignancy-derived cell lines after 24 hours of exposure to the agent were determined using CellTiter Glo.
The antiproliferative activity of GFH009 was assessed in cultured cell lines derived from human hematological malignancies over a period of 24-hour in vitro assay readouts. Enitociclib was used as a comparator for experimental validation (provided by MedChem Express, Monmouth, NJ, USA). Cell growth was analyzed by CellTiter Glo in 96-well plates and detected via chemiluminescent signal. The absolute inhibitory concentration of 50% (AbsIC50 values of the drug were calculated by fitting the drug inhibition rate curve with the “log (inhibitor) versus response – variable slope (4 parameters)” model by using the Prism GraphPad 6 for Windows v6.01 software.

[6] = target: M3 (muscarinic Ach) (Homo sapiens, UniProt P20309); test: GPCR competitive antagonist (off-target inhibitory action) testing; assay type: cell-based
Source text: (§9) Supplementary Table 3: Results of off-target inhibitory action testing of GFH009 administered at
(§10) Competitive antagonist activity against GPCR type shown below
(§11) Target % Inhibitory Effect @ Max Dose
(§12) M1 (muscarinic Ach) 98.78
(§13) M2 (muscarinic Ach) 95.69
(§14) M3 (muscarinic Ach) 99.12

[7] = target: M2 (muscarinic Ach) (Homo sapiens, UniProt P08172); test: as above; assay type: cell-based
Source text: as §9, §10, §11, §12, §13, §14

[8] = target: M1 (muscarinic Ach) (Homo sapiens, UniProt P11229); test: as above; assay type: cell-based
Source text: as §9, §10, §11, §12, §13, §14

[9] = tested on: MV-4-11; test: Apoptosis by Annexin V/PI double staining, flow cytometry; assay type: cell-based, human; settings: 6-hour treatment, DMSO control 6.4 ± 0.1%
Description: Figure 5 Apoptotic activity of GFH009 in human malignancy cell lines. Four cell lines, MV-4-11 (A), HL-60 (B), U937 (C), and NCI-H929 (D) were treated with different concentrations of GFH009 or enitociclib for 6 hours and harvested for cell apoptosis analysis using Annexin V/PI double staining. Data are presented as mean (SD) from multiple independent experiments. ^* P < 0.05, ^*** P < 0.001, ^**** P < 0.0001, one-way ANOVA with Dunnett’s test analysis compared to DMSO control group.
Initiation of apoptosis by GFH009 was assayed in multiple human cell lines, including MV-4-11, HL-60, U937, and NCI-H929. Cells were incubated at 37°C and 5% CO2 for 6 hours at final concentrations of 1 μM, 0.3 μM, 0.1 μM, 0.03 μM, and 0.01 μM for both GFH009 and Enitociclib. After drug treatment, cells were collected, and apoptosis determined using Annexin V-FITC and propidium iodide (PI) staining (Becton, Dickinson and Co, Franklin Lakes, NJ, USA). Samples were examined using an Attune NxT Flow Cytometer (Thermo Fisher Scientific, Waltham, MA, USA) within 1 hour of staining and analyzed using FlowJo vX.0.7 software. The apoptotic rate between groups was statistically compared by means of one-way ANOVA (Dunnett’s multiple comparisons test). Differences from the dimethyl sulfoxide (DMSO)-only treated control group was considered statistically significant at a P value of < 0.05. All plotting and statistical analysis were conducted using the Prism GraphPad 6 for Windows v6.01.

[10] = target: T5, CDK13/cyclin K (Homo sapiens, UniProt Q14004); test: CDK family off-target kinase activity (Eurofins); assay type: biochemical
T5 construct: purchased Eurofins Pharma Discovery Services UK Ltd
T5 sequence (Q14004 whole entry): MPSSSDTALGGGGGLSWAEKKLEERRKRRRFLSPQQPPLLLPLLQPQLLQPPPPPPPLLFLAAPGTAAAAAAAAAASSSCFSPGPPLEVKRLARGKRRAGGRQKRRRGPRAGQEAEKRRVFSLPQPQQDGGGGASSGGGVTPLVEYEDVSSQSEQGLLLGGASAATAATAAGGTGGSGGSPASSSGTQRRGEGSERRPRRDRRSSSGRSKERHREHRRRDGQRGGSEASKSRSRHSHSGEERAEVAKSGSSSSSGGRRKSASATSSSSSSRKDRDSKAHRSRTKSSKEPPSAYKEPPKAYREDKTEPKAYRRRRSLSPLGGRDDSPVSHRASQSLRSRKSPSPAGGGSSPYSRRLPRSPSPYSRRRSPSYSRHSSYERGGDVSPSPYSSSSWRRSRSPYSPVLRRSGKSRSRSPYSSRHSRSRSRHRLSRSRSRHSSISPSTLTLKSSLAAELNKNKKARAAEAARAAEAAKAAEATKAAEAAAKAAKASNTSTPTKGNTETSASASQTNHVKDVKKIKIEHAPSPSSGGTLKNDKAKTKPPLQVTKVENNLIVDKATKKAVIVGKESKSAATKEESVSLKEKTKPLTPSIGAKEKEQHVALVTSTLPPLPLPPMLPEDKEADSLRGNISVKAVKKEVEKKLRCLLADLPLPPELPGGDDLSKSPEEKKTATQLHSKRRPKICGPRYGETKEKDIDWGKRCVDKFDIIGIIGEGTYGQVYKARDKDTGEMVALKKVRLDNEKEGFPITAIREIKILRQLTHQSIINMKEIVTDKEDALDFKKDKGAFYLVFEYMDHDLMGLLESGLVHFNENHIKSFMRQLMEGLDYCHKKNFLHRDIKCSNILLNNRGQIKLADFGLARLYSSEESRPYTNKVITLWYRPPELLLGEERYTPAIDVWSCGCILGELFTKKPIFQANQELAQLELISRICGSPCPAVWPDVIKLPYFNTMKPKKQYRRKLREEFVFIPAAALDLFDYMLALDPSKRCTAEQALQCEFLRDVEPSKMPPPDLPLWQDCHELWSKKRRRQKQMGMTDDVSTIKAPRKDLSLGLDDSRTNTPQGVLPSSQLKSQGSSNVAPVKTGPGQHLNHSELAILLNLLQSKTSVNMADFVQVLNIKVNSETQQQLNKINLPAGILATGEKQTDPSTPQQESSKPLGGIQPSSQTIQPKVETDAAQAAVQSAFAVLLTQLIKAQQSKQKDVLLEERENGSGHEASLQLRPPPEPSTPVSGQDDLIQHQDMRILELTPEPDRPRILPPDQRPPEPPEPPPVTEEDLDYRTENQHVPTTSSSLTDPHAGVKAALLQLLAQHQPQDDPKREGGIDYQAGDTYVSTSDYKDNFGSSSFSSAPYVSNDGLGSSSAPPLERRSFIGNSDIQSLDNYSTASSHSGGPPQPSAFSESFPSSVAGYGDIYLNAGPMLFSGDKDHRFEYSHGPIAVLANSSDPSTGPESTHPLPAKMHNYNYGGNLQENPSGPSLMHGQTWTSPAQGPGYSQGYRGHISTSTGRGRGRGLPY
T5 sequence (O75909 whole entry partner): as the sequence (O75909 whole entry partner) above
Source text: as §2, §3, §4, §5, §6, §7, §8

[11] = tested on: MV-4-11 xenograft tumor; test: Western blot of CDK9-dependent protein expression in MV-4-11 xenograft tumor tissue; assay type: in vivo, female BALB/c nude mice; settings: single dose 15 mg/kg i.v.
Description: Figure 9 Effect of GFH009 treatment on CDK9-dependent protein expression in vivo. Female BALB/c nude mice were subcutaneously inoculated with 5 × 10^6 MV-4-11 cells. […] The mice were euthanized, and tumor tissues were collected at different times after administration as indicated for western blot analysis. Three individual mice were selected from GFH009 treatment group.
In vivo protein expression was assessed via SDS-PAGE and western blotting of samples from female BALB/c nude mice following treatment with GHF009. […] When tumors reached approximately 600 mm^3 (Day 25), animals were randomly divided into two groups. Group 1 received a single dose of vehicle control. […] Both were administered via tail vein injection.
All mice were euthanized, and tumor tissues collected at required times following administration. Group 1 control animals were euthanized at 2 hours post-administration. Group 2 animals were euthanized at 1, 2, 4, 8, 24, and 48 hours after administration. Tumor tissue was harvested, weighed, and flash frozen in liquid nitrogen. Total proteins were extracted and analyzed by western blot to determine expression of phospho-Rpb1 CTD Ser2, RPB1, MYC, MCL-1, Cleaved Caspase-3, and vinculin. Image Studio V5.0 was used to analyze all western blot membrane images.

COC[C@@H](C)NC1CCC(Nc2cc(-c3csc(NCC4(C#N)CCOCC4)n3)c(Cl)cn2)CC1 (some centres unmarked) [GFH009]
Selectivity vs. CDK9 [1]: > 100 | Remaining enzymatic activity (%) after exposure to GFH009 ([1]; 1 µM): 70% | Remaining enzymatic activity (%) after exposure to GFH009 ([1]; 10 µM): 41% | Selectivity vs. CDK9 [2]: > 1000 | Remaining enzymatic activity (%) after exposure to GFH009 ([2]; 1 µM): 97% | Remaining enzymatic activity (%) after exposure to GFH009 ([2]; 10 µM): 50% | Selectivity vs. CDK9 [3]: > 1000 | Remaining enzymatic activity (%) after exposure to GFH009 ([3]; 1 µM): 94% | Remaining enzymatic activity (%) after exposure to GFH009 ([3]; 10 µM): 86% | Selectivity vs. CDK9 [4]: > 100 | Remaining enzymatic activity (%) after exposure to GFH009 ([4]; 1 µM): 74% | Remaining enzymatic activity (%) after exposure to GFH009 ([4]; 10 µM): 39% | pIC50 [5]: > 6.70 | % Inhibitory Effect @ Max Dose (10 µM) [6]: 99.12% | % Inhibitory Effect @ Max Dose (10 µM) [7]: 95.69% | % Inhibitory Effect @ Max Dose (10 µM) [8]: 98.78% | Apoptosis rate ([9]; 0.01 μM): 6.3 ± 0.1% | Apoptosis rate ([9]; 0.03 μM): 7.4 ± 0.3% | Apoptosis rate ([9]; 0.1 μM): 38.1 ± 0.1% | Apoptosis rate ([9]; 0.3 μM): 67.4 ± 1.0% | Apoptosis rate ([9]; 1 μM): 61.2 ± 0.3% | Selectivity vs. CDK9 [10]: > 1000 | Remaining enzymatic activity (%) after exposure to GFH009 ([10]; 1 µM): 93% | Remaining enzymatic activity (%) after exposure to GFH009 ([10]; 10 µM): 88% | Levels of MCL-1 and MYC in tumor ([11]; from 2 hours through 48-hour time point): began to decrease significantly | Expression of p-Rpb1 phospho-Ser2 in tumor ([11]; from one hour through 48 hours post-administration): began to decrease significantly
